Values of other authors in paper PMC2817966 (Journal of chemical information and modeling, 2009).

| Structure (SMILES) | potency towards WT HIV-1 (WT HIV-1) [nM] | activity towards a Y181C variant (Tyr181Cys variant) [µM] | IC50 (WT HIV-1; read-out: IC50 against WT HIV) [nM] | IC50 (Tyr181Cys variant; read-out: IC50 against Tyr181Cys variant) [nM] |
| --- | --- | --- | --- | --- |
| CC(Sc1nc(N)cc(Cl)n1)c1cc2ccoc2cn1 (single isomer, unassigned; (-)) [PNU142721, (-)-6-Chloro-2-[(1-furo[2,3-c]pyridin-5-ylethyl)thio]-4-pyrimidinamine] | 1 | 1 |  |  |
| Cc1cc(C)cc(Oc2c(CSCc3ccco3)c(C)[nH]c(=O)c2I)c1 [Compound R221239] |  |  | 2 | 5 |
